Test in all cases: growth of human tumour cells (NCI), 48 h
In experiment [1] the test system is SK-MEL-2 melanoma.
Experiment [2] relates to UACC-257 melanoma.
The test system of experiment [3] is CCRF-CEM leukemia.
Experiment [4] has as its system SK-MEL-28 melanoma.
Experiment [5] concerns NCI/ADR-RES ovarian.
Experiment [6] relates to HS 578T breast.
For experiment [7], the system named is M14 melanoma.
Experiment [8] concerns A498 renal.
For experiment [9], the system named is T-47D breast.
Experiment [10] deals with K-562 leukemia.

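Interpolation was linear, between the two tested concentrations surrounding the appropriate level; five concentrations were tested over 48 hours in 96-well plates. GI50 = concentration required for 50% inhibition of growth. TGI marks complete inhibition of growth.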

For `N#Cc1c(N)oc(-c2ccc([N+](=O)[O-])cc2)c1C#N`, the TGI in [1] is 64.2 µM; in experiment [2], 62 µM; in experiment [3], more than 100 µM; in experiment [4] it was more than 100 µM; in experiment [5] it was 44 µM; in experiment [6], 82.8 µM. Moreover, the TGI was more than 100 µM in [7], 53.5 µM in experiment [8] and 76.2 µM in experiment [9].
Take `O=c1ccc2ccc(CBr)cc2o1`: the TGI in experiment [1] is 26.6 µM; in experiment [2], 24 µM; in experiment [4], 26.6 µM; in experiment [5], 3.73 µM; in experiment [10], 5.2 µM; in [6], 28.9 µM. Further, the results for the TGI in experiment [7], in experiment [8] and in experiment [9] were 8.92 µM, 29.5 µM and 5.76 µM, respectively.
Turning to `C=C(C)[C@@H](O)[C@H](O)C[C@H](C)C1CC[C@]2(C)C1=CC[C@@H]1[C@@]3(C)CC[C@@H](OC(C)=O)C(C)(C)[C@@H]3C[C@@H](OC3OC(COC(C)=O)C(O)C(O)C3O)[C@]12C` (some centres not stated), the TGI in [1] was determined as 3.63 µM; in [2] it was 8.53 µM; in experiment [3], 5.95 µM; in [4], 6.08 µM; in [5] it was 32 µM; in experiment [10] it was 5.21 µM. The TGI in experiment [6] amounted to 10 µM; in [7] it was 7.38 µM; in experiment [8] it was 10.4 µM; in experiment [9] it was 8.51 µM.
Turning to `COC1=C[C@]2(CCC(=O)O2)[C@@H]2Cc3ccccc3[C@H](O)[C@@H]2C1=O`, the TGI was 96.2 µM in experiment [1]; 62 µM in experiment [2]; 35.8 µM in experiment [3]; more than 100 µM in experiment [4]; more than 100 µM in [5]; more than 100 µM in [10]. The TGI was more than 100 µM in [6], more than 100 µM in [7], more than 100 µM in experiment [8] and 37.7 µM in experiment [9].
For the compound `COc1cc(C2c3cc4c(cc3OC(NNc3ccccc3)C2C)OCO4)cc(OC)c1OC` (configuration not stated), the TGI in experiment [1] was 38.6 µM; in experiment [2] it was more than 100 µM; in [3], more than 27.3 µM; in experiment [4] it was more than 100 µM; in [5], 58.6 µM; in experiment [10], more than 32.1 µM. Besides, the TGI in experiment [6] is more than 43.4 µM; in experiment [7] it was 22.7 µM; in experiment [8] it was 6.76 µM; in experiment [9] it was more than 100 µM.
Regarding `CCC(=O)Nc1cccc(N=Cc2ccc(OC(=O)/C=C\c3ccccc3)cc2)c1`, the TGI in [1], in experiment [2], in [3], in experiment [4], in experiment [5] and in [10] was more than 75 µM throughout. Moreover, the TGI in [6] is more than 75 µM; in experiment [7] it was more than 75 µM; in [8] it was more than 75 µM; in experiment [9] it was 37.7 µM.
Take `O=C1/C(=C/c2ccc(O)cc2)CCCC1CN1CCCCC1` (configuration not stated): the TGI was 26.9 µM in experiment [1]; 6.72 µM in experiment [2]; more than 100 µM in [3]; 10.6 µM in [4]; 29.6 µM in [5]; more than 24.4 µM in experiment [10]. The TGI came to 11.5 µM in experiment [6], 8.07 µM in experiment [7], 20.4 µM in experiment [8] and 5.21 µM in [9].
As for `COC(=O)Nc1nc2ccc(S(=O)(=O)Nc3ccccn3)cc2[nH]1`, the TGI in experiment [1] is more than 100 µM; in [2], 93.5 µM; in [3], 54.2 µM; in [4], 56.2 µM; in experiment [5], more than 100 µM; in experiment [10], 75.9 µM. The TGI in experiment [6], in experiment [7], in experiment [8] and in experiment [9] was more than 100 µM each time.
As for `COc1cc(C2c3cc4c(cc3OC(NNC(N)=O)C2C)OCO4)cc(OC)c1OC` (configuration not stated), the TGI in [1] is more than 100 µM; in experiment [2] it was more than 100 µM; in experiment [3] it was 0.507 µM; in experiment [4] it was more than 100 µM; in experiment [5] it was more than 100 µM; in experiment [10], 2.82 µM. The TGI in [6] was more than 64.9 µM; in experiment [7] it was more than 44.9 µM; in [8], 0.0599 µM; in experiment [9], more than 100 µM.
In the case of `COC(=O)c1c(O)ccc2c1c1cc3ccccc3cc1n2Cc1cc(OC)cc(OC)c1`, the TGI in experiment [1] is 24.6 µM; in experiment [2] it was more than 100 µM; in experiment [3] it was more than 100 µM; in experiment [4] it was more than 100 µM; in experiment [5] it was more than 29.2 µM; in [10], more than 100 µM. Besides, the TGI in experiment [6] was 8.5 µM; in [7], more than 100 µM; in [8], more than 34.3 µM; in experiment [9] it was more than 63.4 µM.
Turning to `CC(C)=CC1C(C(=O)Oc2ccccc2C(C)C)C1(C)C` (configuration not stated), the TGI is 33.1 µM in [1]; 44.2 µM in experiment [2]; 59.6 µM in experiment [3]; more than 100 µM in experiment [4]; more than 100 µM in [5]; 83.8 µM in [10]. The TGI in experiment [6] is more than 100 µM; in experiment [7] it was more than 100 µM; in [8] it was 37.1 µM; in [9] it was 50.3 µM.
Turning to `Cc1ccc(S(=O)(=O)N2CCC[C@@H]2C(=O)O[C@@H]2CCC3CC=CC32)cc1` (some centres not stated), the TGI in experiment [2] is 64.4 µM; in experiment [3], more than 100 µM; in [4], more than 100 µM; in experiment [5], 63.2 µM; in experiment [10], more than 100 µM; in experiment [6] it was 87.5 µM. Also, the results for the TGI in experiment [7], in experiment [8] and in experiment [9] were more than 100 µM, 81.1 µM and more than 100 µM, respectively.
As to `COc1ccc2c(c1)N(Cc1ccc(Cl)cc1)CCC2N1CCCC1=O` (configuration not stated), the GI50 in experiment [1] is 6 µM; in experiment [2], 3.07 µM; in [3], 4.74 µM; in experiment [4], 8.28 µM; in experiment [5], 3.72 µM; in experiment [10], 4.6 µM. The GI50 was 2.76 µM in experiment [6], 4.42 µM in experiment [7], 3.22 µM in experiment [8] and 2.85 µM in experiment [9]. Also, the TGI was 28.8 µM in experiment [1]; 11.2 µM in [2]; more than 100 µM in experiment [3]; 45.6 µM in experiment [4]; 49.6 µM in [5]; more than 100 µM in experiment [10]. Besides, the TGI came out at 26.5 µM in experiment [6], 17.6 µM in experiment [7], 49.7 µM in [8] and 26.2 µM in experiment [9].
For `CC(=O)OCC1OC(N2C(=O)NC(=O)C3C=C4CCCCC4=CC32)CC1OC(C)=O` (configuration not stated), the TGI in experiment [1], in [2], in experiment [4], in experiment [5], in experiment [10] and in [6] was more than 100 µM in each case. The TGI in experiment [7], in experiment [8] and in [9] was more than 100 µM in each case.
Consider `CSc1cc(Cl)c(C)cc1S(=O)(=O)NC(=O)NNc1ccc(F)cc1`, for which the TGI in experiment [1], in experiment [4], in experiment [5], in experiment [10], in experiment [6] and in experiment [7] was more than 100 µM throughout. Moreover, the TGI in experiment [8] and in [9] was more than 100 µM each time.
Consider `Cn1c2ccc(F)cc2c2ccc3c(c21)C(=O)C=CC3=O`, for which the TGI is more than 74.2 µM in [1]; 30.9 µM in experiment [2]; 5.27 µM in experiment [3]; 28.5 µM in experiment [4]; 59.6 µM in experiment [5]; more than 36.4 µM in experiment [10]. Also, the TGI in [6] was more than 86.5 µM; in experiment [7], 27.3 µM; in experiment [8] it was more than 100 µM; in experiment [9], 9 µM.
Take `COc1ccccc1NC(=S)N=Nc1c(O)[nH]c2ccccc12`: the TGI in [1] is more than 100 µM; in [2], more than 100 µM; in experiment [3], more than 100 µM; in experiment [4] it was 23.6 µM; in experiment [5], more than 100 µM; in [10], more than 100 µM. The TGI in experiment [6], in [7], in experiment [8] and in experiment [9] was more than 100 µM throughout.
With `CCOC(=O)c1c(NS(=O)(=O)c2ccc(C)cc2)sc2c1CCCC2`, the TGI in experiment [1] is 54.8 µM; in [2], more than 100 µM; in experiment [3], more than 100 µM; in experiment [5], more than 100 µM; in [10], more than 100 µM; in experiment [6], more than 100 µM. The TGI in experiment [7], in experiment [8] and in [9] was more than 100 µM in each case.
On to `CSc1ncc2c(n1)-c1ccccc1OC2N1CCOCC1` (configuration not stated), for which the TGI in experiment [1], in [2], in experiment [3], in [5], in [10] and in experiment [6] was more than 100 µM throughout. The TGI in [7] is more than 100 µM; in [8] it was 56.7 µM; in [9], 80.3 µM.
`Cc1cc2c(c(C(=O)NCC(=O)N[C@@H](C)C(=O)OCc3ccccc3)c1)Oc1c(cc(C)cc1C(=O)NCC(=O)N[C@@H](C)C(=O)OCc1ccccc1)S2`: the TGI in [1] was more than 100 µM; in [2], more than 100 µM; in experiment [3] it was more than 100 µM; in [5], more than 100 µM; in experiment [10], more than 100 µM; in [6] it was 80.1 µM. Moreover, the TGI in experiment [7] was more than 100 µM; in [8] it was more than 100 µM; in experiment [9], 6.28 µM.
Consider `CCOP(=O)(CCCC(O)CNc1nc(N)nc(Cl)c1N=Nc1ccc(Cl)cc1)OCC` (configuration not stated), for which the TGI was 27.3 µM in experiment [1]; 18.1 µM in [2]; 9.92 µM in [3]; 20.8 µM in experiment [4]; 31 µM in [5]; 16 µM in experiment [10]. The TGI in experiment [6] was 30.3 µM; in experiment [8], 20.7 µM; in experiment [9] it was 23.2 µM.
With `COC(C/C(=C/CO[Si](C(C)C)(C(C)C)C(C)C)C(=O)N(C(=O)OC(C)(C)C)c1ccccc1I)OC`, the TGI in experiment [1] is 37.5 µM; in experiment [2] it was more than 100 µM; in experiment [4], more than 100 µM; in experiment [5] it was more than 100 µM; in [10] it was more than 100 µM; in [6], more than 100 µM. The TGI in experiment [7], in [8] and in [9] was more than 100 µM each time.
On to `COc1cccc2c1NC(=O)Cc1c-2[nH]c2ccccc12`, for which the TGI in [1], in experiment [3], in experiment [4], in experiment [5], in experiment [10] and in experiment [6] was more than 100 µM throughout. In addition, the TGI in [7], in experiment [8] and in [9] was more than 100 µM in each case.
As for `CCOC(=O)/C=C/C(=O)O/C=C/[N+](=O)[O-]`, the TGI in experiment [2], in [3], in [5], in experiment [6], in experiment [7] and in experiment [8] was more than 100 µM each time. Moreover, the TGI in [9] was more than 100 µM.
For `Clc1cc(-c2ccccc2)nc(Nc2nc3ccccc3[nH]2)n1`, the TGI in experiment [2] is 44 µM; in experiment [3] it was 27.6 µM; in [5] it was more than 100 µM; in experiment [10], 85.3 µM; in experiment [6], 80.2 µM; in experiment [7] it was 63 µM. Also, the TGI in experiment [8] was 98.3 µM; in experiment [9], more than 100 µM.
With `CC(=O)OCC1OC(n2cnc3nc(Br)[nH]c(=O)c32)C(OC(C)=O)C1OC(C)=O` (configuration not stated), the TGI in experiment [1], in experiment [2], in [3], in experiment [5], in [10] and in experiment [6] was more than 100 µM throughout. Besides, the TGI in experiment [7], in experiment [8] and in [9] was more than 100 µM throughout.
